Laboratory results from patent US20070293581A1, “Methods for Buccal, Lingual or Sublingual Dosing Regimens of Epinephrine for the Treatment of Allergic Emergencies” (priority 2006, published 2007).
Read-outs that look alike come from different tables or passages of the source.

Tested on: patient experiencing an allergic emergency (symptoms of anaphylaxis)
Description: A patient experiencing an allergic emergency initiates treatment at the onset of shortness of breath by self administering 40 mg of epinephrine free base in a buccal dosage form.
A patient experiencing an allergic emergency initiates treatment at the onset of shortness of breath by self administering 40 mg of epinephrine free base in a buccal dosage form. […] After another approximately 5 minutes pass without amelioration of the symptoms of anaphylaxis, the patient self administers a third buccal dosage form comprising 20 mg of epinephrine free base.
A patient experiencing an allergic emergency initiates treatment at the onset of shortness of breath by self administering 40 mg of epinephrine free base in a lingual dosage form. After approximately 5 minutes pass without amelioration of the symptoms of anaphylaxis, the patient self administers a second lingual dosage form comprising 40 mg of epinephrine free base. After another approximately 5 minutes pass without amelioration of the symptoms of anaphylaxis, the patient self administers a third lingual dosage form comprising 20 mg of epinephrine free base.

Measured: patient's symptoms of anaphylaxis

CNC[C@H](O)c1ccc(O)c(O)c1 [epinephrine free base, epinephrine]
relieved: Example 1: buccal dosage form, 40 mg then second 40 mg after approx. 5 minutes, outcome within about five minutes after the second dose | Example 2: buccal dosage form, 40 mg, then 20 mg at approx. 5 minute intervals, outcome within about five minutes after the third dose | Example 3: lingual dosage form, 40 mg, then 20 mg at approx. 5 minute intervals, outcome within about five minutes after the third dose
